Test results published in ChEMBL document CHEMBL1148261, “Pharmacophore-based search, synthesis, and biological evaluation of anthranilic amides as novel blockers of the Kv1.5 channel” (Bioorg Med Chem Lett, 2004).

Columns and labels:
[1] = target: T1, Potassium voltage-gated channel subfamily A member 5 (Homo sapiens, UniProt P22460); assay: Inhibitory effect against human voltage-gated potassium channel subunit Kv1.5 expressed in Xenopus oocytes; assay type: cell-based, Oocyte
[2] = pKa value was determined; assay type: physicochemical
[3] = target: T1, Potassium voltage-gated channel subfamily A member 5; assay: Percent inhibition of human voltage-gated potassium channel subunit Kv1.5 expressed in Xenopus oocytes at 10 uM; assay type: cell-based; conditions: Oocyte
[4] = Oral bioavailability of compound in rats; assay type: ADME, organism-based; conditions: rat, in vivo

T1 sequence (P22460 whole entry): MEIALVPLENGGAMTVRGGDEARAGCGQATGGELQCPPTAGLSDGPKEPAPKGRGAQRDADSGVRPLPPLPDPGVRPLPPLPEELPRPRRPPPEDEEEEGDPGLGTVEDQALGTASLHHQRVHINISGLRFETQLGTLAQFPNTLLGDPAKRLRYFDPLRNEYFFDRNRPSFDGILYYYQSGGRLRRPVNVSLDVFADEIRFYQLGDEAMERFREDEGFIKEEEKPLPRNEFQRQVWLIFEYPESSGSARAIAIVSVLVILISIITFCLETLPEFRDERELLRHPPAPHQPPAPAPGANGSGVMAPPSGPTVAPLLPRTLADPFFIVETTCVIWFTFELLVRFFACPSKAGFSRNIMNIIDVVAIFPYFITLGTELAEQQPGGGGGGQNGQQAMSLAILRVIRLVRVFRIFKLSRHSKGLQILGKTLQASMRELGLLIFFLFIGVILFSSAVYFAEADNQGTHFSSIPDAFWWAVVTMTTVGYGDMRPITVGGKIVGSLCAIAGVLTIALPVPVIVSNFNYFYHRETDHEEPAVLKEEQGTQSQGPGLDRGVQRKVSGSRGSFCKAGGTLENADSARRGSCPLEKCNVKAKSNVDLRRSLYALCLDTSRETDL

| IC50 [1] | also measured | SMILES |
| --- | --- | --- |
| 1.6 µM |  | Cc1ccc(S(=O)(=O)Nc2ccccc2C(=O)NC(c2ccccc2)C2CC2)cc1 (configuration not stated) |
| 4 µM | pKa [2]: 6.2 | CC[C@H](NC(=O)c1ccccc1NS(=O)(=O)c1ccc(C(F)(F)F)cc1)c1ccccc1 |
|  | inhibition [3]: 36% | CC[C@H](NC(=O)c1ccccc1NS(=O)(=O)c1cccnc1)c1ccccc1 |
| 9 µM |  | CC[C@H](NC(=O)c1ccccc1NS(=O)(=O)c1cccc2cnccc12)c1ccccc1 |
|  | bioavailability [4]: 43% | Cc1ccc(S(=O)(=O)Nc2ccccc2C(=O)N(Cc2ccccc2)Cc2cccnc2)cc1 |
| 6.7 µM |  | Cc1ccc(S(=O)(=O)Nc2ccccc2C(=O)NCCc2ccccc2)cc1 |
| 5.6 µM |  | O=C(NCc1ccccc1)c1cc(Cl)ccc1NS(=O)(=O)c1ccc(Cl)cc1 |
| 0.7 µM | pKa [2]: 7.2 | CC[C@H](NC(=O)c1ccccc1NS(=O)(=O)c1ccc(C)cc1)c1ccccc1 |
|  | inhibition [3]: 41% | CC[C@H](NC(=O)c1cc(OCC2CC2)ccc1NS(=O)(=O)c1ccc(C)cc1)c1ccccc1 |
|  | inhibition [3]: 46% | CC[C@H](NC(=O)c1cc(OCCOC)ccc1NS(=O)(=O)c1ccc(C)cc1)c1ccccc1 |
| 3.8 µM | pKa [2]: 6.5 | CC[C@H](NC(=O)c1cc(F)ccc1NS(=O)(=O)c1ccc(Cl)cc1)c1ccccc1 |
| 0.6 µM |  | CC[C@H](NC(=O)c1ccccc1NS(=O)(=O)c1cccc2cccnc12)c1ccccc1 |
| 1.3 µM | pKa [2]: 6.9 | CC[C@H](NC(=O)c1ccccc1NS(=O)(=O)c1ccccc1)c1ccccc1 |
| 10 µM |  | CC[C@H](NC(=O)c1ccccc1NS(=O)(=O)CC)c1ccccc1 |
| 3.8 µM |  | CC[C@H](NC(=O)c1cc(C(C)=O)ccc1NS(=O)(=O)c1ccc(C)cc1)c1ccccc1 |
| 2.2 µM |  | Cc1ccc(S(=O)(=O)Nc2ccccc2C(=O)N(Cc2cccnc2)Cc2cccnc2)cc1 |
|  | inhibition [3]: 15% | CC[C@H](NC(=O)c1cc(OCN(C)C)ccc1NS(=O)(=O)c1ccc(C)cc1)c1ccccc1 |
|  | pKa [2]: 7.5 | CC[C@H](NC(=O)c1cc(OC)ccc1NS(=O)(=O)c1ccc(C)cc1)c1ccccc1 |
